Experimental findings from patent publication US8716281B2, “Pyrimidine compounds that inhibit anaplastic lymphoma kinase” (Amgen Inc., priority 2010, dated 2014) are described below.

In the test the target is T1, wild-type human ALK cytoplasmic domain (amino acids 1058-1620) (Homo sapiens, UniProt Q9UM73).
T1 construct: The cytoplasmic domain (amino acids 1058-1620) of wild-type human ALK; GST (N); made in house; host or cells: SF9 insect cells
Kind of test: ALK Inhibition in Enzyme Assay (Lance TR-FRET). Type of test: biochemical. Conditions: 2 nM enzyme, ATP at 40 μM (Km apparent), 90 minutes, mean of three replicates; read-out: ALK IC50. Summed up: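 Purified enzyme phosphorylated a biotinylated peptide substrate for 90 minutes at room temperature. Reactions were stopped with 20 mM EDTA in 50 mM Tris (pH 7.5), 100 mM NaCl, 0.05% BSA, 0.1% Tween-20. Phosphopeptide was detected by TR-FRET with SA-APC and Eu-W1024 anti-phosphotyrosine antibody PT66, excitation 320 nm.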
(In general: Time-resolved FRET reads energy transfer from a long-lived donor to a nearby acceptor.)

Usually IC50 stands for the concentration that inhibits the measured activity by half.

T1 sequence (Q9UM73 1058-1620): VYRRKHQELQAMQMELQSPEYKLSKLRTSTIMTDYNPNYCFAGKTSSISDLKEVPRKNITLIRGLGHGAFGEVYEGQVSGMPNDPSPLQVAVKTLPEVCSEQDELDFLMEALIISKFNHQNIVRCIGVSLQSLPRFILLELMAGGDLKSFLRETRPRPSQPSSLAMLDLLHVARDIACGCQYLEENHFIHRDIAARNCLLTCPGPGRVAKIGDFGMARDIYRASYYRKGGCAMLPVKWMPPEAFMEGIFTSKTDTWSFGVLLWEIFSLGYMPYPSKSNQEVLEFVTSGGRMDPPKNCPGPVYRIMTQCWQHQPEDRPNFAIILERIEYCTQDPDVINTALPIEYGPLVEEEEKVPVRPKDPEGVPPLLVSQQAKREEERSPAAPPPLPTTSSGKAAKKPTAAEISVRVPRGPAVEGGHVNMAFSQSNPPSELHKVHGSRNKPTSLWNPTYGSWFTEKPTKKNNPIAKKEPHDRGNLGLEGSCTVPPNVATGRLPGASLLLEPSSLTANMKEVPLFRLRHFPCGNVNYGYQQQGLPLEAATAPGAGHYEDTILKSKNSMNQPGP

As for `Cc1ccc(CNC(=O)[C@H]2CCCN(c3ccnc(Nc4cccc(C(C)O)c4)n3)C2)cc1` (stereo partly drawn) [Example 167, (3S)-1-(2-((3-(1-hydroxyethyl)phenyl)amino)-4-pyrimidinyl)-N-(4-methylbenzyl)-3-piperidinecarboxamide], the IC50 lay in the range of 0.1 to 1 µM.

In the case of `CNC(=O)c1cccc(Nc2nccc(N3CCC[C@H](C(=O)NCc4ccc(C)cc4)C3)n2)c1` [Example 168, (3S)-N-(4-methylbenzyl)-1-(2-((3-(methylcarbamoyl)phenyl)amino)-4-pyrimidinyl)-3-piperidinecarboxamide], the IC50 was in the range of 1 to 5 µM.

On to `COc1cc(F)cc(Nc2nccc(N3CCC[C@H](C(=O)NCc4ccc(C)cc4)C3)n2)c1` [Example 169, (3S)-1-(2-((3-fluoro-5-methoxyphenyl)amino)-4-pyrimidinyl)-N-(4-methylbenzyl)-3-piperidinecarboxamide], for which the concentration for half-maximal inhibition (IC50) lay in the range of 0.1 to 1 µM.

Take `COc1cc(Nc2nccc(N3CCC[C@H](C(=O)NCc4ccc(C)cc4)C3)n2)cc(C(F)(F)F)c1` [Example 170, (3S)-1-(2-((3-methoxy-5-(trifluoromethyl)phenyl)amino)-4-pyrimidinyl)-N-(4-methylbenzyl)-3-piperidinecarboxamide]: the IC50 lay within 0.1 to 1 µM.

For the compound `Cc1ccc(CNC(=O)[C@H]2CCCN(c3ccnc(Nc4cccc(C(C)C)c4)n3)C2)cc1` [Example 171, (3S)-N-(4-methylbenzyl)-1-(2-((3-(1-methylethyl)phenyl)amino)-4-pyrimidinyl)-3-piperidinecarboxamide], the IC50 lay within 0.1 to 1 µM.

Take `Cc1ccc(CNC(=O)[C@H]2CCCN(c3ccnc(Nc4ccc(C(C)C)cc4)n3)C2)cc1` [Example 172, (3S)-N-(4-methylbenzyl)-1-(2-((4-(1-methylethyl)phenyl)amino)-4-pyrimidinyl)-3-piperidinecarboxamide]: the IC50 is 1 to 5 µM.

As to `Cc1ccc(CNC(=O)[C@H]2CCCN(c3ccnc(Nc4ccc(C(N)=O)cc4)n3)C2)cc1` [Example 173, (3S)-1-(2-((4-carbamoylphenyl)amino)-4-pyrimidinyl)-N-(4-methylbenzyl)-3-piperidinecarboxamide], the IC50 was in the range of 1 to 5 µM.

Regarding `Cc1ccc(CNC(=O)[C@H]2CCCN(c3ccnc(Nc4cc(Cl)cc(Cl)c4)n3)C2)cc1` [Example 174, (3S)-1-(2-((3,5-dichlorophenyl)amino)-4-pyrimidinyl)-N-(4-methylbenzyl)-3-piperidinecarboxamide], the half-inhibitory concentration (IC50) fell in the range of 1 to 5 µM.

For `Cc1ccc(CNC(=O)[C@H]2CCCN(c3ccnc(Nc4cccc(OCc5ccccc5)c4)n3)C2)cc1` [Example 175, (3S)-1-(2-((3-(benzyloxy)phenyl)amino)-4-pyrimidinyl)-N-(4-methylbenzyl)-3-piperidinecarboxamide], the IC50 lay in the range of 1 to 5 µM.

Turning to `Cc1ccc(CNC(=O)[C@H]2CCCN(c3ccnc(Nc4cccc(-c5nnn[nH]5)c4)n3)C2)cc1` [Example 176, (3S)-N-(4-methylbenzyl)-1-(2-((3-(1H-tetrazol-5-yl)phenyl)amino)-4-pyrimidinyl)-3-piperidinecarboxamide], the IC50 is 5 to 10 µM.

As to `Cc1ccc(CNC(=O)[C@H]2CCCN(c3ccnc(Nc4cccc(-c5cnco5)c4)n3)C2)cc1` [Example 177, (3S)-N-(4-methylbenzyl)-1-(2-((3-(1,3-oxazol-5-yl)phenyl)amino)-4-pyrimidinyl)-3-piperidinecarboxamide], the half-inhibitory concentration (IC50) was in the range of 0.1 to 1 µM.

On to `CC(=O)Nc1cccc(Nc2nccc(N3CCC[C@H](C(=O)NCc4ccc(C)cc4)C3)n2)c1` [Example 178, (3S)-1-(2-((3-(acetylamino)phenyl)amino)-4-pyrimidinyl)-N-(4-methylbenzyl)-3-piperidinecarboxamide], for which the IC50 is 0.1 to 1 µM.

Regarding `Cc1ccc(CNC(=O)[C@H]2CCCN(c3ccnc(Nc4ccc(F)cc4)n3)C2)cc1` [Example 179, (3S)-1-(2-((4-fluorophenyl)amino)-4-pyrimidinyl)-N-(4-methylbenzyl)-3-piperidinecarboxamide], the half-inhibitory concentration (IC50) fell in the range of 1 to 5 µM.

In the case of `Cc1ccc(CNC(=O)[C@H]2CCCN(c3ccnc(Nc4ccc(C)cc4)n3)C2)cc1` [Example 180, (3S)-N-(4-methylbenzyl)-1-(2-((4-methylphenyl)amino)-4-pyrimidinyl)-3-piperidinecarboxamide], the half-inhibitory concentration (IC50) fell in the range of 1 to 5 µM.

For the compound `Cc1ccc(CNC(=O)[C@H]2CCCN(c3ccnc(Nc4cccc(C(C)(C)C)c4)n3)C2)cc1` [Example 181, (3S)-1-(2-((3-tert-butylphenyl)amino)-4-pyrimidinyl)-N-(4-methylbenzyl)-3-piperidinecarboxamide], the IC50 is 0.1 to 1 µM.

Turning to `Cc1ccc(CNC(=O)[C@H]2CCCN(c3ccnc(Nc4cccc(-c5ccccc5)c4)n3)C2)cc1` [Example 182, (3S)-1-(2-(3-biphenylylamino)-4-pyrimidinyl)-N-(4-methylbenzyl)-3-piperidinecarboxamide], the 50% inhibitory concentration (IC50) was 0.1 to 1 µM.

Regarding `CC(=O)NCc1cccc(Nc2nccc(N3CCC[C@H](C(=O)NCc4ccc(C)cc4)C3)n2)c1` [Example 183, (3S)-1-(2-((3-((acetylamino)methyl)phenyl)amino)-4-pyrimidinyl)-N-(4-methylbenzyl)-3-piperidinecarboxamide], the IC50 is 0.1 to 1 µM.

In the case of `Cc1ccc(CNC(=O)[C@H]2CCCN(c3ccnc(Nc4cccc(CC(N)=O)c4)n3)C2)cc1` [Example 184, (3S)-1-(2-((3-(2-amino-2-oxoethyl)phenyl)amino)-4-pyrimidinyl)-N-(4-methylbenzyl)-3-piperidinecarboxamide], the IC50 is 0.1 to 1 µM.

Turning to `Cc1ccc(CNC(=O)[C@H]2CCCN(c3ccnc(Nc4cccc(F)c4)n3)C2)cc1` [Example 185, (3S)-1-(2-((3-fluorophenyl)amino)-4-pyrimidinyl)-N-(4-methylbenzyl)-3-piperidinecarboxamide], the concentration for half-maximal inhibition (IC50) lay in the range of 1 to 5 µM.

Regarding `Cc1ccc(CNC(=O)[C@H]2CCCN(c3ccnc(Nc4ccc(C(=O)c5ccccc5)cc4)n3)C2)cc1` [Example 186, (S)-1-(2-(4-benzoylphenylamino)pyrimidin-4-yl)-N-(4-methylbenzyl)piperidine-3-carboxamide], the IC50 lay within 5 to 10 µM.

With `CCN(CC)CCNC(=O)c1ccc(Nc2nccc(N3CCC[C@H](C(=O)NCc4ccc(C)cc4)C3)n2)cc1` [Example 187, (S)-1-(2-(4-(2-(diethylamino)ethylcarba-moyl)phenylamino)pyri-midin-4-yl)-N-(4-methylbenzyl)piperidine-3-carboxamide], the IC50 fell in the range of 0.1 to 1 µM.

In the case of `Cc1ccc(CNC(=O)[C@H]2CCCN(c3ccnc(Nc4ccc(S(N)(=O)=O)cc4)n3)C2)cc1` [Example 188, (S)-N-(4-methylbenzyl)-1-(2-(4-sulfamoylphenylamino)pyrimidin-4-yl)piperidine-3-carboxamide], the half-inhibitory concentration (IC50) lay within 0.1 to 1 µM.

On to `Cc1ccc(CNC(=O)[C@H]2CCCN(c3ccnc(Nc4ccc(-c5cnco5)cc4)n3)C2)cc1` [Example 189, (S)-N-(4-methylbenzyl)-1-(2-(4-(oxazol-5-yl)phenylamino)py-rimidin-4-yl)piperidine-3-carboxamide], for which the IC50 was in the range of 1 to 5 µM.

As for `Cc1ccc(CNC(=O)[C@H]2CCCN(c3ccnc(Nc4cc(OC[C@H]5CCCN5C)cc(C(F)(F)F)c4)n3)C2)cc1` [Example 190, (S)-N-(4-methylbenzyl)-1-(2-(3-(((R)-1-methylpyrrolidin-2-yl)methoxy)-5-(trifluoromethyl)phenylamino)pyrimidin-4-yl)piperidine-3-carboxamide], the half-inhibitory concentration (IC50) was 0.05 to 0.1 µM.
